Source: EP4813978A1, “COMPOUND TARGETING UBIQUITIN KRAS PROTEIN DEGRADATION AGENT, AND USE THEREOF” (Betta Pharmaceuticals Co., Ltd, priority 2023, dated 2025)

Experiments:
Type in all cases: cell-based
[1] = system: AGS; experiment: Cell proliferation assay (Cell-titer Glo), AGS; conditions: KRAS G12D, 96 h
Method: (§1) Cells with different mutations were seeded in low-attachment transparent 96-well plates at the seeding densities shown in Table 1, and incubated overnight in a cell culture incubator. After the cells adhered, the test compounds were added to the 96-well plates at final concentrations of 20000 nM, 5000 nM, 1250 nM, 312.5 nM, 78.13 nM, 19.53 nM, 4.88 nM, 1.22 nM, 0.31 nM, 0 nM (the final concentration of DMSO was 0.25% in all wells). After culturing at 37°C for 96 h, 50 µL of Cell-titer Glo working solution was added to each well. The plates were shaken to mix and then incubated at room temperature for 10 min. Luminescence values were read on a multimode microplate reader, and the luminescence data were converted into percentage inhibition. The percentage of cell proliferation inhibition was calculated according to the following formula: Percentage inhibition = (1−(TestValue−Blank)/(MaxValue−Blank)) × 100% [formula]
(§2) ("Max value" is from the 0.25% DMSO control wells, "Blank" is from the blank medium control wells, and "Test Value" is from the compound-treated wells).
(§3) Curve fitting was performed using GraphPad Prism software to obtain IC50 (nM) values.

[2] = system: SW620; experiment: Cell proliferation assay (Cell-titer Glo), SW620; conditions: Homo sapiens, SW-620, SW620, KRAS G12V, 96 h
Method: as §1, §2, §3

[3] = system: H358; experiment: Cell proliferation assay (Cell-titer Glo), H358; conditions: Homo sapiens, NCI-H358, H358, KRAS G12C, 96 h
Method: as §1, §2, §3

[4] = system: Panc0403; experiment: Cell proliferation assay (Cell-titer Glo), Panc0403; conditions: Homo sapiens, Panc 04.03, Panc0403, KRAS G12D, 96 h
Method: as §1, §2, §3

[5] = system: AsPC-1; experiment: Cell proliferation assay (Cell-titer Glo), AsPC-1; conditions: Homo sapiens, ASPC1, AsPC-1, KRAS G12D, 96 h
Method: as §1, §2, §3

[6] = system: MKN-1; experiment: Cell proliferation assay (Cell-titer Glo), MKN-1; conditions: Homo sapiens, MKN-1, KRAS WT-Amp, 96 h
Method: as §1, §2, §3

[7] = system: Mia-Paca2; experiment: Cell proliferation assay (Cell-titer Glo), Mia-Paca2; conditions: 96 h
Method: as §1, §2, §3

[8] = Homo sapiens, MIA PaCa-2, Mia-Paca2, KRAS G12C

| IC50 ([1]; Homo sapiens) | IC50 [2] | IC50 [3] | Compound | further results |
| --- | --- | --- | --- | --- |
| 20 nM | 34 nM | 55 nM | CCc1c(F)ccc2cc(O)cc(-c3ncc4c(N5CCCOCC5)nc(OCC5(CN6CCC(Oc7cnc(-c8cn([C@H](C(=O)N9C[C@H](O)C[C@H]9C(=O)N[C@@H](C)c9ccc(-c%10scnc%10C)cc9)C(C)C)nn8)cn7)CC6)CC5)nc4c3F)c12 [Compound 5, (2S,4R)-1-((S)-2-(4-(5-((1-((1-(((7-(8-ethyl-7-fluoro-3-hydroxynaphthalen-1-yl)-8-fluoro-4-(1,4-oxazepan-4-yl)pyrido[4,3-d]pyrimidin-2-yl)oxy)methyl)cyclopropyl)methyl)piperidin-4-yl)oxy)pyrazin-2-yl)-1H-1,2,3-triazol-1-yl)-3-methylbutanoyl)-4-hydroxy-N-((S)-1-(4-(4-methylthiazol-5-yl)phenyl)ethyl)pyrrolidine-2-carboxamide] | – |
| 6.2 nM | 31 nM | – | CCc1c(F)ccc2cc(O)cc(-c3ncc4c(N5CCCS(=O)(=O)C5)nc(OCC5(CN6CCC(Oc7cnc(-c8cn([C@H](C(=O)N9C[C@H](O)C[C@H]9C(=O)N[C@@H](C)c9ccc(-c%10scnc%10C)cc9)C(C)C)nn8)cn7)CC6)CC5)nc4c3F)c12 [Compound 7, (2S,4R)-1-((S)-2-(4-(5-((1-((1-(((4-(1,1-dioxido-1,3-thiazinan-3-yl)-7-(8-ethyl-7-fluoro-3-hydroxynaphthalen-1-yl)-8-fluoropyrido[4,3-d]pyrimidin-2-yl)oxy)methyl)cyclopropyl)methyl)piperidin-4-yl)oxy)pyrazin-2-yl)-1H-1,2,3-triazol-1-yl)-3-methylbutanoyl)-4-hydroxy-N-((S)-1-(4-(4-methylthiazol-5-yl)phenyl)ethyl)pyrrolidine-2-carboxamide] | – |
| 5 nM | 18 nM | 20 nM | CCc1c(F)ccc2cc(O)cc(-c3ncc4c(N5CCC[C@](O)(CC#N)C5)nc(OCC5(CN6CCC(Oc7cnc(-c8cn([C@H](C(=O)N9C[C@H](O)C[C@H]9C(=O)N[C@@H](C)c9ccc(-c%10scnc%10C)cc9)C(C)C)nn8)cn7)CC6)CC5)nc4c3F)c12 [Compound 57, (2S,4R)-1-((S)-2-(4-(5-((1-((1-(((4-((S)-3-(cyanomethyl)-3-hydroxypiperidin-1-yl)-7-(8-ethyl-7-fluoro-3-hydroxynaphthalen-1-yl)-8-fluoropyrido[4,3-d]pyrimidin-2-yl)oxy)methyl)cyclopropyl)methyl)piperidin-4-yl)oxy)pyrazin-2-yl)-1H-1,2,3-triazol-1-yl)-3-methylbutanoyl)-4-hydroxy-N-((S)-1-(4-(4-methylthiazol-5-yl)phenyl)ethyl)pyrrolidine-2-carboxamide] | – |
| 30 nM | 43 nM | 56 nM | CCc1c(F)ccc2cc(O)cc(-c3ncc4c(N5CCCC6(CCO6)C5)nc(OCC5(CN6CCN(c7ccc(-c8cn([C@H](C(=O)N9C[C@H](O)C[C@H]9C(=O)N[C@@H](C)c9ccc(-c%10scnc%10C)cc9)C(C)C)nn8)cn7)CC6)CC5)nc4c3F)c12 (stereo partly drawn) [Compound 111, (2S,4R)-1-((2S)-2-(4-(6-(4-((1-(((7-(8-ethyl-7-fluoro-3-hydroxynaphthalen-1-yl)-8-fluoro-4-(1-oxa-6-azaspiro[3.5]nonan-6-yl)pyrido[4,3-d]pyrimidin-2-yl)oxy)methyl)cyclopropyl)methyl)piperazin-1-yl)pyridin-3-yl)-1H-1,2,3-triazol-1-yl)-3-methylbutanoyl)-4-hydroxy-N-((S)-1-(4-(4-methylthiazol-5-yl)phenyl)ethyl)pyrrolidine-2-carboxamide] | – |
| 4.4 nM | 20 nM | – | CCc1c(F)ccc2cc(O)cc(-c3nc4c5c(nc(OCC6(CN7CCC(Oc8cnc(-c9cn([C@H](C(=O)N%10C[C@H](O)C[C@H]%10C(=O)N[C@@H](C)c%10ccc(-c%11scnc%11C)cc%10)C(C)C)nn9)cn8)CC7)CC6)nc5c3F)N3CCCOC[C@H]3CO4)c12 [Compound 112, (2S,4R)-1-((S)-2-(4-(5-((1-((1-((((S)-2-(8-ethyl-7-fluoro-3-hydroxynaphthalen-1-yl)-1-fluoro-5a, 6,9,10-tetrahydro-5H,8H-4,7-dioxa-3,10a,11,13-tetraazanaphtho[1,8-ab]heptalen-12-yl)oxy)methyl)cyclopropyl)methyl)piperidin-4-yl)oxy)pyrazin-2-yl)-1H-1,2,3-triazol-1-yl)-3-methylbutanoyl)-4-hydroxy-N-((S)-1-(4-(4-methylthiazol-5-yl)phenyl)ethyl)pyrrolidine-2-carboxamide] | IC50 [4]: 6.5 nM; IC50 [5]: 2.6 nM; IC50 [6]: 0.4 nM |
| 80 nM | 325 nM | – | CCc1c(F)ccc2cc(O)cc(-c3ncc4c(N5CCCCC(=O)C5)nc(OCC5(CN6CCC(Oc7cnc(-c8cn([C@H](C(=O)N9C[C@H](O)C[C@H]9C(=O)N[C@@H](C)c9ccc(-c%10scnc%10C)cc9)C(C)C)nn8)cn7)CC6)CC5)nc4c3F)c12 [Compound 113, (2S,4R)-1-((S)-2-(4-(5-((1-((1-(((7-(8-ethyl-7-fluoro-3-hydroxynaphthalen-1-yl)-8-fluoro-4-(3-oxoazepan-1-yl)pyrido[4,3-d]pyrimidin-2-yl)oxy)methyl)cyclopropyl)methyl)piperidin-4-yl)oxy)pyrazin-2-yl)-1H-1,2,3-triazol-1-yl)-3-methylbutanoyl)-4-hydroxy-N-((S)-1-(4-(4-methylthiazol-5-yl)phenyl)ethyl)pyrrolidine-2-carboxamide] | – |
| 2.7 nM | 10 nM | – | CCc1c(F)ccc2cc(O)cc(-c3ncc4c(N5CCOC[C@@](C)(O)C5)nc(OCC5(CN6CCC(Oc7cnc(-c8cn([C@H](C(=O)N9C[C@H](O)C[C@H]9C(=O)N[C@@H](C)c9ccc(-c%10scnc%10C)cc9)C(C)C)nn8)cn7)CC6)CC5)nc4c3F)c12 [Compound 114, (2S,4R)-1-((S)-2-(4-(5-((1-((1-(((7-(8-ethyl-7-fluoro-3-hydroxynaphthalen-1-yl)-8-fluoro-4-((S)-6-hydroxy-6-methyl-1,4-oxazepan-4-yl)pyrido[4,3-d]pyrimidin-2-yl)oxy)methyl)cyclopropyl)methyl)piperidin-4-yl)oxy)pyrazin-2-yl)-1H-1,2,3-triazol-1-yl)-3-methylbutanoyl)-4-hydroxy-N-((S )-1-(4-(4-methylthiazol-5-yl)phenyl)ethyl)pyrrolidine-2-carboxamide] | – |
| 4.4 nM | 15 nM | 8.4 nM | CCc1c(F)ccc2cc(O)cc(-c3ncc4c(N5CCOC[C@@](C)(O)C5)nc(OCC5(CN6CCC(Oc7cnc(-c8cn([C@H](C(=O)N9C[C@H](O)C[C@H]9C(=O)N[C@@H](CN(C)C)c9ccc(-c%10scnc%10C)cc9)C(C)C)nn8)cn7)CC6)CC5)nc4c3F)c12 [Compound 131, (2S,4R)-N-((R)-2-(dimethylamino)-1-(4-(4-methylthiazol-5-yl)phenyl)ethyl)-1-((S)-2-(4-(5-((1-((1-(((7-(8-ethyl-7-fluoro-3-hydroxynaphthalen-1-yl)-8-fluoro-4-((S)-6-hydroxy-6-methyl-1,4-oxazepan-4-yl)pyrido[4,3-d]pyrimidin-2-yl)oxy)methyl)cyclopropyl)methyl)piperidin-4-yl)oxy)pyrazin-2-yl)-1H-1,2,3-triazol-1-yl)-3-methylbutanoyl)-4-hydroxypyrrolidine-2-carboxamide] | IC50 [7, 8]: 5.3 nM |
| 15 nM | 36 nM | 40 nM | CCc1c(F)ccc2cc(O)cc(-c3nc4c5c(nc(OCC6(CN7CCC(Oc8cnc(-c9cn([C@H](C(=O)N%10C[C@H](O)C[C@H]%10C(=O)N[C@@H](C)c%10ccc(-c%11scnc%11C)cc%10)C(C)C)nn9)cn8)CC7)CC6)nc5c3F)N3CCCC(C)(O)C3CO4)c12 (stereo partly drawn) [Compound 133, (2S,4R)-1-((2S)-2-(4-(5-((1-((1-(((5-(8-ethyl-7-fluoro-3-hydroxynaphthalen-1-yl)-4-fluoro-9-hydroxy-9-methyl-8,8a,9,10,11,12-hexahydro-7-oxa-1,3,6,12a-tetraazabenzo[4,5]cyclohepta[1,2,3-de]naphthalen-2-yl)oxy)methyl)cyclopropyl)methyl)piperidin-4-yl)oxy)pyrazin-2-yl)-1H-1,2,3-triazol-1-yl)-3-methylbutanoyl)-4-hydroxy-N-((S)-1-(4-(4-methylthiazol-5-yl)phenyl)ethyl)pyrrolidine-2-carboxamide] | IC50 [7, 8]: 26 nM |
| – | – | – | (2S,4R)-1-((2S)-2-(4-(5-((1-((1-(((7-(8-ethyl-7-fluoro-3-hydroxynaphthalen-1-yl)-8-fluoro-4-(3-h ydroxy-3-methylazepan-1-yl)pyrido[4,3-d]pyrimidin-2-yl)oxy)methyl)cyclopropyl)methyl)piperi din-4-yl)oxy)pyrazin-2-yl)-1H-1,2,3-triazol-1-yl)-3-methylbutanoyl)-4-hydroxy-N-((S)-1-(4-(4-methylthiazol-5-yl)phenyl)ethyl)pyrrolidine-2-carboxamide [Compound 134] | IC50 [1]: 34 nM; IC50 ([7]; Mia-Paca2, KRAS G12C): 67 nM |
